Experimental data reported in patent US20250304620A1, “ANTIMICROBIAL PEPTIDE AND APPLICATION THEREOF” (priority 2023, published 2025).
Values after ≈ are worked out from the molar mass of the structure shown. Read-outs that look alike come from different tables or passages of the source. Non-standard residues stand in square brackets, D forms with d. Residues, ends and D or L forms follow the SMILES beside them. PEG200 = polyethylene glycol 200, conjugated to the C-terminus; dPhe(3,4-F2) = N[C@H](Cc1ccc(F)c(F)c1)C(=O)O; 2Nal = N[C@@H](Cc1ccc2ccccc2c1)C(=O)O; d2Nal = N[C@H](Cc1ccc2ccccc2c1)C(=O)O

Experiments:
[1] = Serum stability assay (residual level by RP-HPLC); conditions: human
rabbit red blood cells = format: cell-based; conditions: red cells of rabbit, 1 h
Candida utilis ATCC 9950 = format: cell-based
Outline: (§1)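 Broth microdilution (CLSI), twofold steps, MIC endpoint, 5× in parallel.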

[2] = test system: Salmonella typhimurium ATCC 14028; format: cell-based
Outline: as §1

[3] = test system: Staphylococcus aureus ATCC 25923; format: cell-based
Outline: as §1

[4] = test system: Bacillus subtilis ATCC 6633; format: cell-based
Outline: as §1

[5] = test system: Candida glabrata ATCC 15126; format: cell-based
Outline: as §1

[6] = test system: Staphylococcus aureus (NRS 384); experiment: microbe, parasite or virus in culture; format: cell-based
Outline: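 MICs were read against S. aureus strain NRS 384 using twofold serial dilution by CLSI microdilution rules. Levofloxacin and Cbf-K16 were the reference controls, and the test was repeated 5 times in parallel.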

[7] = test system: Methicillin-sensitive Staphylococcus aureus (NRS 384); format: in vivo, ICR mice; conditions: 0.1 mL twice a day for 4 days, mouse back skin infection
Method: (§2) Both female and male ICR mice were used in the test, half of the female and male mice were taken and randomly assigned into groups, with 10 mice in each group, and kept in separate cages. The mice were divided into a blank group, a model group, a positive control Methicillin group, and topical formulation groups of AMPs LV-1 to LV-30. Suspensions of Methicillin-sensitive Staphylococcus aureus (NRS 384) and Methicillin-resistant Staphylococcus aureus (MRSA) were prepared, and their concentrations were adjusted to a concentration of 5×10^6 CFU/mL for subsequent use. Hair on backs of the mice was shaved with a shaver, wound was created on back skin of each mouse using a biopsy punch, and the wound was then infected with Methicillin-sensitive Staphylococcus aureus and Methicillin-resistant Staphylococcus aureus (0.1 mL, 5×10^6 CFU/mL) to establish infection models. Except for the blank group and the model group, all other groups received corresponding topical formulations applied directly to the infected areas, with a dose of 0.1 mL, twice a day for 4 consecutive days. On the day following the final administration, skin from the infected sites of each group was aseptically collected, and an antibacterial rate was calculated.

[8] = test system: Methicillin-resistant Staphylococcus aureus (MRSA); format: in vivo, ICR mice; conditions: 0.1 mL twice a day for 4 days, mouse back skin infection
Method: as §2

| Molecule | remaining at 12 h, 0.91 mg/mL [1] [%] | MHC (minimum hemolytic concentration, lowest concentration causing 10% hemolysis) (rabbit red blood cells) [µg/mL] | MIC Candida utilis ATCC 9950 (Candida utilis ATCC 9950) [µg/mL] | MIC Salmonella typhimurium ATCC 14028 [2] [µg/mL] | MIC Staphylococcus aureus ATCC 25923 [3] [µg/mL] | MIC Bacillus subtilis ATCC 6633 [4] [µg/mL] | MIC Candida glabrata ATCC 15126 [5] [µg/mL] | MIC against Staphylococcus aureus (NRS 384) ([6]; NRS 384) [µg/mL] | Inhibition rate against Methicillin-sensitive Staphylococcus aureus (%) ([7]; topical formulation 0.2 mg/mL) | Inhibition rate against Methicillin-sensitive Staphylococcus aureus (%) ([7]; topical formulation 1 mg/mL) | Inhibition rate against Methicillin-sensitive Staphylococcus aureus (%) ([7]; topical formulation 5 mg/mL) | Inhibition rate against Methicillin-resistant Staphylococcus aureus (%) ([8]; topical formulation 0.2 mg/mL) | Inhibition rate against Methicillin-resistant Staphylococcus aureus (%) ([8]; topical formulation 1 mg/mL) | Inhibition rate against Methicillin-resistant Staphylococcus aureus (%) ([8]; topical formulation 5 mg/mL) | MIC against Staphylococcus aureus (NRS 384) ([6]; Staphylococcus aureus (NRS 384)) [µg/mL] |
| --- | --- | --- | --- | --- | --- | --- | --- | --- | --- | --- | --- | --- | --- | --- | --- |
| CC(=O)N[C@H](CCCNC(=N)N)C(=O)N[C@H](CCCCN)C(=O)N[C@H](CC(C)C)C(=O)N[C@H](CC(C)C)C(=O)N[C@H](Cc1ccc2ccccc2c1)C(=O)N[C@H](CCCCN)C(=O)N[C@H](CC(C)C)C(=O)N[C@H](CCCCN)C(=O)N[C@H](Cc1ccc2ccccc2c1)C(=O)N[C@H](CCCCN)C(=O)N[C@H](CCCNC(=N)N)C(N)=O [LV-18] (Ac-[dR][dK][dL][dL][d2Nal][dK][dL][dK][d2Nal][dK][dR]-NH2) | 97.6 | >1000 | 8 (≈ 4.94 µM) | 4 (≈ 2.47 µM) | 2 (≈ 1.24 µM) | 4 (≈ 2.47 µM) | 4 (≈ 2.47 µM) | 1 (≈ 0.618 µM) |  |  |  |  |  |  |  |
| CC(=O)N[C@H](CCCCN)C(=O)N[C@H](CCCCN)C(=O)N[C@H](CC(C)C)C(=O)N[C@H](CC(C)C)C(=O)N[C@H](Cc1ccc2ccccc2c1)C(=O)N[C@H](CCCNC(=N)N)C(=O)N[C@H](CC(C)C)C(=O)N[C@H](CCCCN)C(=O)N[C@H](Cc1ccc2ccccc2c1)C(=O)N[C@H](CCCNC(=N)N)C(=O)N[C@H](CCCCN)C(N)=O [LV-19] (Ac-[dK][dK][dL][dL][d2Nal][dR][dL][dK][d2Nal][dR][dK]-NH2) | 98.1 | >1000 | 8 (≈ 4.94 µM) | 2 (≈ 1.24 µM) | 1 (≈ 0.618 µM) | 8 (≈ 4.94 µM) | 8 (≈ 4.94 µM) | 1 (≈ 0.618 µM) |  |  |  |  |  |  |  |
| CC(=O)N[C@H](CCCNC(=N)N)C(=O)N[C@H](CCCCN)C(=O)N[C@H](CC(C)C)C(=O)N[C@H](CC(C)C)C(=O)N[C@H](Cc1ccc2ccccc2c1)C(=O)N[C@H](CCCNC(=N)N)C(=O)N[C@H](CC(C)C)C(=O)N[C@H](CCCCN)C(=O)N[C@H](Cc1ccc2ccccc2c1)C(=O)N[C@H](CCCNC(=N)N)C(=O)N[C@H](CCCCN)C(N)=O [LV-20] (Ac-[dR][dK][dL][dL][d2Nal][dR][dL][dK][d2Nal][dR][dK]-NH2) | 98.2 | >1000 | 8 (≈ 4.86 µM) | 1 (≈ 0.607 µM) | 1 (≈ 0.607 µM) | 2 (≈ 1.21 µM) | 8 (≈ 4.86 µM) | 1 (≈ 0.607 µM) |  |  |  |  |  |  |  |
| CC(=O)N[C@H](CCCNC(=N)N)C(=O)N[C@H](CCCNC(=N)N)C(=O)N[C@H](CC(C)C)C(=O)N[C@H](CC(C)C)C(=O)N[C@H](Cc1ccc2ccccc2c1)C(=O)N[C@H](CCCNC(=N)N)C(=O)N[C@H](CC(C)C)C(=O)N[C@H](CCCCN)C(=O)N[C@H](Cc1ccc2ccccc2c1)C(=O)N[C@H](CCCNC(=N)N)C(=O)N[C@H](CCCCN)C(N)=O [LV-21] (Ac-[dR][dR][dL][dL][d2Nal][dR][dL][dK][d2Nal][dR][dK]-NH2) | 97.9 | >1000 | 8 (≈ 4.78 µM) | 2 (≈ 1.19 µM) | 1 (≈ 0.597 µM) | 2 (≈ 1.19 µM) | 16 (≈ 9.56 µM) | 1 (≈ 0.597 µM) |  |  |  |  |  |  |  |
| CC(=O)N[C@H](CCCNC(=N)N)C(=O)N[C@H](CCCCN)C(=O)N[C@H](CC(C)C)C(=O)N[C@H](CC(C)C)C(=O)N[C@H](Cc1ccc2ccccc2c1)C(=O)N[C@H](CCCNC(=N)N)C(=O)N[C@H](CC(C)C)C(=O)N[C@H](CCCCN)C(=O)N[C@H](Cc1ccc2ccccc2c1)C(=O)N[C@H](CCCNC(=N)N)C(=O)N[C@H](CCCNC(=N)N)C(N)=O [LV-22] (Ac-[dR][dK][dL][dL][d2Nal][dR][dL][dK][d2Nal][dR][dR]-NH2) | 97.2 | >1000 | 16 (≈ 9.56 µM) | 4 (≈ 2.39 µM) | 1 (≈ 0.597 µM) | 4 (≈ 2.39 µM) | 8 (≈ 4.78 µM) | 1 (≈ 0.597 µM) |  |  |  |  |  |  |  |
| CC(=O)N[C@H](CCCCN)C(=O)N[C@H](CCCNC(=N)N)C(=O)N[C@H](CC(C)C)C(=O)N[C@H](CC(C)C)C(=O)N[C@H](Cc1ccc2ccccc2c1)C(=O)N[C@H](CCCCN)C(=O)N[C@H](CC(C)C)C(=O)N[C@H](CCCCN)C(=O)N[C@H](Cc1ccc2ccccc2c1)C(=O)N[C@H](CCCCN)C(=O)N[C@H](CCCNC(=N)N)C(N)=O [LV-23] (Ac-[dK][dR][dL][dL][d2Nal][dK][dL][dK][d2Nal][dK][dR]-NH2) | 97.5 | >1000 | 8 (≈ 4.94 µM) | 2 (≈ 1.24 µM) | 1 (≈ 0.618 µM) | 4 (≈ 2.47 µM) | 8 (≈ 4.94 µM) | 1 (≈ 0.618 µM) |  |  |  |  |  |  |  |
| CC(=O)N[C@H](CCCNC(=N)N)C(=O)N[C@H](CCCNC(=N)N)C(=O)N[C@H](CC(C)C)C(=O)N[C@H](CC(C)C)C(=O)N[C@H](Cc1ccc2ccccc2c1)C(=O)N[C@H](CCCCN)C(=O)N[C@H](CC(C)C)C(=O)N[C@H](CCCCN)C(=O)N[C@H](Cc1ccc2ccccc2c1)C(=O)N[C@H](CCCCN)C(=O)N[C@H](CCCNC(=N)N)C(N)=O [LV-24] (Ac-[dR][dR][dL][dL][d2Nal][dK][dL][dK][d2Nal][dK][dR]-NH2) | 98.3 | >1000 | 8 (≈ 4.86 µM) | 1 (≈ 0.607 µM) | 1 (≈ 0.607 µM) | 2 (≈ 1.21 µM) | 4 (≈ 2.43 µM) | 1 (≈ 0.607 µM) |  |  |  |  |  |  |  |
| CC(=O)N[C@H](CCCCN)C(=O)N[C@H](CCCCN)C(=O)N[C@H](CC(C)C)C(=O)N[C@H](CC(C)C)C(=O)N[C@H](Cc1ccc(F)c(F)c1)C(=O)N[C@H](CCCNC(=N)N)C(=O)N[C@H](CC(C)C)C(=O)N[C@H](CCCCN)C(=O)N[C@H](Cc1ccc(F)c(F)c1)C(=O)N[C@H](CCCNC(=N)N)C(=O)N[C@H](CCCCN)C(N)=O [LV-25] (Ac-[dK][dK][dL][dL][dPhe(3,4-F2)][dR][dL][dK][dPhe(3,4-F2)][dR][dK]-NH2) | 97.8 | >1000 | 8 (≈ 5.03 µM) | 1 (≈ 0.629 µM) | 2 (≈ 1.26 µM) | 8 (≈ 5.03 µM) | 8 (≈ 5.03 µM) | 1 (≈ 0.629 µM) |  |  |  |  |  |  |  |
| Ac-RKLLXRLKXRK-PEG200 [LV-26] (Ac-RKLL[2Nal]RLK[2Nal]RK-PEG200) [polyethylene glycol 200 conjugated to C-terminal; X=3-(2-naphthyl)-alanine] |  |  | 16 | 2 | 1 | 4 | 8 |  | 96.35 | 96.92 | 97.87 | 86.51 | 86.79 | 87.56 | 1 |
